The text below walks through data of ChEMBL document CHEMBL1149151, “Macrocyclization in the design of non-phosphorus-containing Grb2 SH2 domain-binding ligands” (J Med Chem, 2004).

Structures are written as SMILES. Values joined by “and” are separate entries in the source; they are usually repeats but may differ in a detail not shown here. Equal values may be shown once.

Data set [1] deals with T1, Growth factor receptor-bound protein 2 (Homo sapiens, UniProt P62993). Briefly: In vitro Growth factor receptor bound protein 2-binding affinity in ELISA method.
T1 sequence (P62993 whole entry): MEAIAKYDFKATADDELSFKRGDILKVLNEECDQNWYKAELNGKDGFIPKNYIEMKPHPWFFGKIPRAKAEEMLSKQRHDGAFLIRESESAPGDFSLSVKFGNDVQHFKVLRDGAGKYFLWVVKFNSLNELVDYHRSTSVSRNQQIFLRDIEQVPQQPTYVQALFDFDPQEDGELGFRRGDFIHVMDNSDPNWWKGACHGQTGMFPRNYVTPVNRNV
The nature of data set [2]: koff value surface plasmon resonance (SPR) method. The data set is classed as ADME. On the technique in general: SPR reads the build-up and loss of mass on a sensor chip optically.
In data set [3] the target is T1, Growth factor receptor-bound protein 2. Kind of data set: In vitro Growth factor receptor bound protein 2-binding affinity in surface plasmon resonance (SPR) method.
Data set [4] in a line: kd value surface plasmon resonance (SPR) method. The data set is classed as ADME.

As a reminder, the IC50 is the point on the concentration scale where inhibition reaches its midpoint. Read a high IC50 as a need for much substance. As for `NC(=O)C[C@H](NC(=O)C1(NC(=O)[C@H](Cc2ccc(C(C(=O)O)C(=O)O)cc2)NC(=O)C(=O)O)CCCCC1)C(=O)NCCCc1cccc2ccccc12`, in data set [1], the half-maximal inhibitory concentration (IC50) worked out at 0.0221 µM.

Usually Kd stands for the equilibrium constant for the complex coming apart. On to `NC(=O)C[C@@H]1NC(=O)C2(CCCCC2)NC(=O)[C@@H](CC(=O)O)[C@@H](c2ccc(CP(=O)(O)O)cc2)/C=C/C[C@@H](Cc2cccc3ccccc23)CNC1=O`, for which the Koff in data set [2] amounted to 0.0056 s⁻¹. Besides, the IC50 in data set [3] was 0.0014 µM and 0.0121 µM. The compound also yielded a Kd in data set [4] of 0.0009 µM.

Consider `NC(=O)C[C@@H]1NC(=O)C2(CCCCC2)NC(=O)[C@@H](CC(=O)O)[C@@H](c2ccc(C(C(=O)[O-])C(=O)[O-])cc2)/C=C/C[C@@H](Cc2cccc3ccccc23)CNC1=O.[Na+].[Na+]`, for which the Koff in data set [2] came to 0.044 s⁻¹. For the same compound, the IC50 is 0.0121 µM in data set [3] and 0.0043 µM in data set [1]. The compound further gave a Kd in data set [4] of 0.0121 µM.

In turn, `NC(=O)C[C@H](NC(=O)C1(NC(=O)[C@H](Cc2ccc(CP(=O)(O)O)cc2)NC(=O)C(=O)O)CCCCC1)C(=O)NCCCc1cccc2ccccc12` gave a Koff in data set [2] of 0.11 s⁻¹. For the same compound, the results for the IC50 in data set [3] and in data set [1] were roughly 0.08 µM and 0.01 µM, respectively. For the same compound, the dissociation constant (Kd) in data set [4] was 0.128 µM.
